#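 Grown in 96-well plates, cells were treated for 48 hours with each compound at five concentrations. Insufficient inhibition: endpoint recorded as highest concentration tested. Abbreviation: GI50, concentration required for 50% inhibition of growth. TGI marks complete inhibition of growth.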
# What was measured:
# Assay in all cases: NCI-60 cell line screen, 48 h
# [1] = test system: HCT-116 colon
# [2] = test system: UACC-62 melanoma
# [3] = test system: MDA-MB-231 breast
# [4] = test system: 786-0 renal
# [5] = test system: TK-10 renal
# [6] = test system: UACC-257 melanoma
# [7] = test system: MOLT-4 leukemia
# [8] = test system: NCI-H522 lung
# [9] = test system: HCT-15 colon
# [10] = test system: SF-539 CNS
# [11] = test system: U251 CNS
# [12] = test system: OVCAR-3 ovarian
# [13] = test system: SK-MEL-5 melanoma
# [14] = test system: NCI-H460 lung
# [15] = test system: PC-3 prostate
# [16] = test system: OVCAR-8 ovarian
# [17] = test system: SW-620 colon
# [18] = test system: HL-60(TB) leukemia
# [19] = test system: DU-145 prostate
# [20] = test system: ACHN renal
# [21] = test system: HOP-62 NSCLC
# [22] = test system: SR leukemia
# [23] = test system: KM12 colon
# [24] = test system: HCC-2998 colon
# [25] = test system: EKVX NSCLC
# [26] = test system: K-562 leukemia
# [27] = test system: COLO 205 colon
# [28] = test system: MDA-MB-435
# [29] = test system: T-47D breast
# [30] = test system: IGROV1 ovarian
# [31] = test system: SN12C renal
# [32] = test system: SNB-75 CNS
# [33] = test system: A498 renal
# [34] = test system: NCI-H226 lung
# [35] = test system: HT29 colon
# [36] = test system: SF-295 CNS
# [37] = test system: OVCAR-4 ovarian
# [38] = test system: SNB-19 CNS
# [39] = test system: CCRF-CEM leukemia
# [40] = test system: CAKI-1 renal
# [41] = test system: RPMI-8226 leukemia
# [42] = test system: MCF7 breast
# [43] = test system: LOX IMVI melanoma
# [44] = test system: BT-549 breast
# [45] = test system: SK-OV-3 ovarian
# [46] = test system: SK-MEL-2 melanoma
# [47] = test system: UO-31 renal
# [48] = test system: A549 NSCLC
# [49] = test system: RXF 393 renal
# [50] = test system: HOP-92 NSCLC
# [51] = test system: SF-268 CNS
# [52] = test system: NCI-H23 lung
# [53] = test system: SK-MEL-28 melanoma
smiles,measurement,setting,value
O=C1/C(=C\c2c[nH]c3ccccc23)c2ccccc2N1c1c(Cl)cccc1Cl,GI50,[1],1300 nM
same,TGI,[1],2560 nM
same,GI50,[2],1330 nM
same,TGI,[2],2640 nM
same,GI50,[3],1590 nM
same,TGI,[3],3210 nM
same,GI50,[4],1740 nM
same,TGI,[4],3210 nM
same,GI50,[5],2170 nM
same,TGI,[5],5000 nM
same,GI50,[6],2340 nM
same,TGI,[6],4610 nM
same,GI50,[7],1500 nM
same,TGI,[7],5130 nM
same,GI50,[8],1810 nM
same,TGI,[8],3560 nM
same,GI50,[9],1160 nM
same,TGI,[9],2920 nM
same,GI50,[10],1590 nM
same,TGI,[10],3010 nM
same,GI50,[11],1580 nM
same,TGI,[11],3680 nM
same,GI50,[12],1830 nM
same,TGI,[12],3780 nM
same,GI50,[13],1550 nM
same,TGI,[13],2920 nM
same,GI50,[14],1660 nM
same,TGI,[14],3370 nM
same,GI50,[15],1350 nM
same,TGI,[15],2960 nM
same,GI50,[16],3260 nM
same,TGI,[16],11200 nM
same,GI50,[17],1900 nM
same,TGI,[17],3560 nM
same,GI50,[18],1550 nM
same,TGI,[18],3820 nM
same,GI50,[19],1740 nM
same,TGI,[19],3280 nM
same,GI50,[20],2400 nM
same,TGI,[20],10100 nM
same,GI50,[21],1380 nM
same,TGI,[21],2750 nM
same,GI50,[22],2330 nM
same,TGI,[22],5160 nM
same,GI50,[23],1840 nM
same,TGI,[23],3690 nM
same,GI50,[24],1700 nM
same,TGI,[24],3120 nM
same,GI50,[25],1630 nM
same,TGI,[25],4910 nM
same,GI50,[26],2280 nM
same,TGI,[26],5400 nM
same,GI50,[27],1800 nM
same,TGI,[27],3270 nM
same,GI50,[28],1770 nM
same,TGI,[28],3570 nM
same,GI50,[29],2010 nM
same,TGI,[29],5620 nM
same,GI50,[30],1190 nM
same,TGI,[30],3180 nM
same,GI50,[31],1530 nM
same,TGI,[31],2890 nM
same,GI50,[32],1680 nM
same,TGI,[32],5610 nM
same,GI50,[33],3090 nM
same,TGI,[33],4860 nM
same,GI50,[34],1700 nM
same,TGI,[34],3650 nM
same,GI50,[35],1850 nM
same,TGI,[35],3400 nM
same,GI50,[36],1750 nM
same,TGI,[36],3510 nM
same,GI50,[37],2330 nM
same,TGI,[37],6440 nM
same,GI50,[38],2770 nM
same,TGI,[38],13500 nM
same,GI50,[39],2420 nM
same,TGI,[39],7230 nM
same,GI50,[40],1430 nM
same,TGI,[40],4530 nM
same,GI50,[41],1890 nM
same,TGI,[41],4680 nM
same,GI50,[42],1740 nM
same,TGI,[42],3760 nM
same,GI50,[43],1590 nM
same,TGI,[43],3090 nM
same,GI50,[44],1600 nM
same,TGI,[44],4070 nM
same,GI50,[45],2130 nM
same,TGI,[45],5270 nM
same,GI50,[46],1940 nM
same,TGI,[46],3650 nM
same,GI50,[47],1400 nM
same,TGI,[47],3230 nM
same,GI50,[48],2620 nM
same,TGI,[48],7790 nM
same,GI50,[49],2020 nM
same,TGI,[49],3920 nM
same,GI50,[50],2000 nM
same,TGI,[50],3540 nM
same,GI50,[51],1600 nM
same,TGI,[51],3590 nM
same,GI50,[52],1660 nM
same,TGI,[52],3380 nM
same,GI50,[53],2140 nM
same,TGI,[53],3800 nM

# From PubChem BioAssay (NCI)
